Reference: ChEMBL document CHEMBL1127421, “The synthesis and in vitro evaluation of a 99mtechnetium-nitroimidazole complex based on a bis(amine-phenol) ligand: comparison to BMS-181321” (J Med Chem, 1994)

Columns and labels:
[1] = organism: Rattus norvegicus; test: Ratio in isolated cardiac myocytes under anoxic/oxic conditions; assay type: functional, cell-based
[2] = organism: Rattus norvegicus; test: In vitro evaluation of efficacy of BAPN in isolated cardiac myocytes under normoxia condition; assay type: functional, cell-based
[3] = organism: Rattus norvegicus; test: In vitro evaluation of efficacy of BAPN in isolated cardiac myocytes under anoxia condition; assay type: functional, cell-based
[4] = organism: Bos taurus; test: Compound was evaluated for permeability index in cultured bovine endothelial cell monolayer system; assay type: ADME; conditions: cattle
[5] = organism: Rattus norvegicus; test: In vitro evaluation of efficacy of BAPN in isolated cardiac myocytes under anoxic/oxic conditions; assay type: functional, cell-based

Row | Permeability index [4] [Pi] | Substance | Ratio [1] | Retention [2] [%] | Retention [3] [%] | Ratio [5]
1 | – | 99m Tc-BAPN [listing 1 of 2 here] | 1.08 | 38.2 | 41.4 | –
2 | 63.2 | 99m Tc-BMS 181321 [listing 1 of 2 here] | – | – | – | –
3 | -0.25 | 99m Tc-BAPN [listing 2 of 2 here] | – | – | – | –
4 | – | 99m Tc-BMS 181321 [listing 2 of 2 here] | 3.03% | 17.6 | – | 3.03
